Where “and” joins values, the source holds several entries; their conditions need not be identical. Equal values may be shown once.
Experiments:
Format in all cases: biochemical
HGFA [1] = target: T1, HGFA (Homo sapiens, UniProt Q04756); assay: Chromogenic kinetic enzyme inhibitor assay of HGFA; settings: Table 4.1; chromogenic substrate Pefachrome FVIIa
T1 construct: His6 tag (N); seven amino acid spacer and seven amino acid TEV cleavage site (N); Honey Bee melittin signal peptide (N); made in house; host or cells: High 5 insect cells (baculovirus; virus raised in Sf9)
T1 sequence (Q04756 373-655): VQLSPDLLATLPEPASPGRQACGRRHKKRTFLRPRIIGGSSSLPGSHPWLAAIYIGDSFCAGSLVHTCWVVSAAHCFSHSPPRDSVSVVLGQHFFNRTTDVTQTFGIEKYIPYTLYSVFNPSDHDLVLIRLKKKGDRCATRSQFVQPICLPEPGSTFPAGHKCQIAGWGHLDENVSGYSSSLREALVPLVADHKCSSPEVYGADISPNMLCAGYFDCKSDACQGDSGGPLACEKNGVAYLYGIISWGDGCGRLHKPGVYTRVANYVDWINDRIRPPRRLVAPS
Text: This PCR product was cloned into the SfoI-HindIII sites of a modified pFastBac HT baculovirus expression vector (Addgene, Cambridge, Mass.). This vector contains a six amino His tag followed by a seven amino spacer and a seven amino acid TEV cleavage site placed immediately downstream of the Honey Bee melittin signal peptide. Using a modified Bac to Bac Expression System (Life Technologies, Carlsbad, Calif.), recombinant HGFA bacmids were obtained by transforming DH10Bac Escherichia coli cells. To obtain HGFA containing baculovirus, purified bacmids were transfected into Sf9 insect cells. After 5 days in culture at 27° C., media was harvested from transfected Sf9 cells. This media was used to prepare baculovirus infected insect cells (BIICs). These BIIICs were used to infect High 5 insect cells. Four days post infection, media was harvested and recombinant protein prepared as follows. Media was chilled to 4° C. and spun at 4000×g for 20 minutes (all subsequent steps were performed at 4° C. unless noted). […] Concentrated media was then buffer exchanged in two steps, five volumes of 50 mM Na-phosphate, 500 mM NaCl, pH 6.2, followed by five volumes of 50 mM Na-phosphate, 500 mM NaCl, pH 7.5. […] After mixing this slurry for 12 hours, nickel agarose beads were allowed to settle by gravity and then loaded into a column. Beads were washed with buffer (25 mM Na-phosphate, 500 mM NaCl, 25 mM imidazole, pH 8) and the bound protein eluted using (25 mM Na-phosphate, 500 mM NaCl, 250 mM imidazole, pH 8). Using a Amicon Ultra-4 Centrifugal filters (#UFC801008, Merck Millipore, Ltd., Tullagreen, Ireland), peak protein fractions were concentrated and run over a Superdex-200 10/300 GL column (GE Healthcare Life Sciences, Piscataway, N.J.) in 10 mM Tris, 200 mM NaCl, 0.2 mM EDTA, pH 8. HGFA containing fractions were pooled, concentrated, made 50% glycerol, and stored at minus 20° C. Protein was quantitated using a modified Lowry protein assay (#500-0006, Bio-Rad Laboratories, Hercules, Calif.).
Using Gen 5 2.00 software program (Biotek, Winnoski, Vt.), a four parameter curve fit was used to determine the inhibitor IC50s from a plot of the mean reaction velocity versus the inhibitor concentration. The IC50 values represent the average of three separate experimental determinations.

HGFA [2] = target: T1, HGFA; assay: Fluorescent kinetic enzyme inhibitor assay of HGFA; settings: for Ki: Table 4.2, Boc-QLR-AMC substrate, read-out: HGFA Ki
Method in brief: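 Recombinant His-tagged HGFA residues 373-655 from insect cells, with substrate at Km. Inhibitors in 11-point dilutions, 0-20 μM final, 2% DMSO, fluorescence (ex 380/em 460 nm) followed over time at room temperature. IC50 from four-parameter fit of mean velocity, average of three experiments.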

matriptase = target: T2, matriptase (Homo sapiens, UniProt Q9Y5Y6); assay: Fluorescent kinetic enzyme inhibitor assay of matriptase; settings: for IC50: Table 4.1
T2 construct: Charles Craik, UCSF (obtained from another laboratory)
T2 sequence (Q9Y5Y6 615-855 limits assumed): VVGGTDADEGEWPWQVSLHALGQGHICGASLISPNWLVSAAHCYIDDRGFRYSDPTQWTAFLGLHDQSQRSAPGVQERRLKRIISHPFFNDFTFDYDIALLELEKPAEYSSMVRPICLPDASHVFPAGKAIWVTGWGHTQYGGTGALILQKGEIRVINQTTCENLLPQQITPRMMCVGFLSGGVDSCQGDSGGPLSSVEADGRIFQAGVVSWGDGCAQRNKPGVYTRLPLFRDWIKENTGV
Description: (§1) Inhibitors (11-pt serial dilutions, 0-20 μM final concentration in reaction) were serially diluted in DMSO (2% DMSO final concentration) and then mixed with either recombinant serine protease domain of HGFA [Z. Han, P. K. Harris, D. E. Jones, R. Chugani, T. Kim, M. Agarwal, W. Shen, S. A. Wildman, J. W. Janetka, Acs Med Chem Lett 2014, 5, 1219-1224], matriptase (Charles Craik, UCSF) or hepsin* (#4776-SE-010, R&D Systems, Minneapolis, Minn.) in black 384 well plates (Corning #3575. Corning, N.Y.). […] The final substrate concentrations for all assays were at the Km for the respective enzymes. Changes in fluorescence (excitation at 380 nm and emission at 460 nm) were measured at room temperature over time in a Biotek Synergy 2 plate reader (Winnoski, Vt.). Using GraphPad Prism version 6.04 software program, (GraphPad Software, San Diego, Calif., www.graphpad.com), a four parameter curve fit was used to determine the inhibitor IC50s from a plot of the mean reaction velocity versus the inhibitor concentration. The IC50 values represent the average of three separate experimental determinations.

hepsin = target: T3, hepsin (Homo sapiens, UniProt P05981); assay: Fluorescent kinetic enzyme inhibitor assay of hepsin; settings: for IC50: Table 4.1; for Ki: Table 4.2, Boc-QAR-AMC substrate, read-out: Hepsin Ki
T3 construct: purchased R&D Systems 4776-SE-010
Description: as §1

T3 sequence (P05981 163-417 limits assumed): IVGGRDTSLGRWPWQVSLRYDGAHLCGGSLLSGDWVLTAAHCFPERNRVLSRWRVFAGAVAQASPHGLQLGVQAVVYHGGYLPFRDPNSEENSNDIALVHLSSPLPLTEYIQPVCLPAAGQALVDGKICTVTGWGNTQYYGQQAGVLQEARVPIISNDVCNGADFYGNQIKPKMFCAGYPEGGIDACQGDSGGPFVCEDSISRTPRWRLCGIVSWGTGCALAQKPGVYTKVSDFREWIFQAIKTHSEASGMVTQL
T3 sequence (P05981 45-162 partner limits assumed): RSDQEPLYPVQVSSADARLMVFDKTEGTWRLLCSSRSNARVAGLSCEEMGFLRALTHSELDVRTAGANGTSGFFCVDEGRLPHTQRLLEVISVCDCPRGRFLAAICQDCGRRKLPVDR

Row | Compound | IC50 (HGFA [1]) | Ki (HGFA [2]) [nM] | further results
1 | CC(=O)N[C@@H](CC(C)C)C(=O)N[C@@H](CC(C)C)C(=O)N[C@@H](CCCNC(=N)N)C(=O)c1nccs1 [Ac-LLR-kt] | 1480 nM | 253 | 
2 | CC(=O)N[C@@H](CCCCN)C(=O)N[C@@H](CCC(N)=O)C(=O)N[C@@H](CC(C)C)C(=O)N[C@H](CCCNC(=N)N)C(=O)c1nccs1 [Compound 5-1, Ac-KQLdR-kt] | 5530 nM |  | 
3 | CC(=O)N[C@@H](CCCCN)C(=O)N[C@@H](Cc1c[nH]cn1)C(=O)N[C@@H](CC(C)C)C(=O)N[C@@H](CCCNC(=N)N)C(=O)c1nccs1 [Compound 5a, Ac-KHLR(SEQ ID NO: 2)-kt] | 650 nM | 96 | 
4 | CC(=O)N[C@@H](CCCCN)C(=O)N[C@@H](Cc1c[nH]cn1)C(=O)N[C@@H](CC(C)C)C(=O)N[C@H](CCCNC(=N)N)C(=O)c1nccs1 [Compound 5a-1, Ac-KHLdR-kt] | 10900 nM |  | 
5 | CC(=O)N[C@@H](Cc1c[nH]c2ccccc12)C(=O)N[C@@H](CCC(N)=O)C(=O)N[C@@H](CC(C)C)C(=O)N[C@@H](CCCNC(=N)N)C(=O)c1nccs1 [Compound 5b, Ac-WQLR(SEQ ID NO: 3)-kt] | 471 nM | 65 | IC50 (matriptase): 49 nM; IC50 (hepsin): 1 nM; Ki (hepsin): 0.21 nM
6 | CC(=O)N[C@@H](Cc1c[nH]c2ccccc12)C(=O)N[C@@H](CCC(N)=O)C(=O)N[C@@H](CC(C)C)C(=O)N[C@H](CCCNC(=N)N)C(=O)c1nccs1 [Compound 5b-1, Ac-WQLdR-kt] | 7120 nM |  | 
7 | CC(=O)N[C@@H](CCCCN)C(=O)N[C@@H](CCC(N)=O)C(=O)N[C@@H](Cc1ccccc1)C(=O)N[C@H](CCCNC(=N)N)C(=O)c1nccs1 [Compound 5c-1, Ac-KQFdR-kt] | 7820 nM |  | 
8 | CC(=O)N[C@@H](CCCCN)C(=O)N[C@@H](Cc1ccccc1)C(=O)N[C@@H](CC(C)C)C(=O)N[C@@H](CCCNC(=N)N)C(=O)c1nccs1 [Compound 5d, Ac-KFLR(SEQ ID NO: 5)-kt] | 330 nM | 80 | selectivity among HGFA, matriptase and hepsin (HGFA [2]): HGFA selectivity over both hepsin and matriptase; IC50 (matriptase): 35 nM; Ki (matriptase; Table 4.2, Boc-QAR-AMC substrate): 15 nM; IC50 (hepsin): 22 nM; Ki (hepsin): 2.1 nM
9 | CC(=O)N[C@@H](CCCNC(=N)N)C(=O)N[C@@H](CCC(N)=O)C(=O)N[C@@H](CC(C)C)C(=O)N[C@H](CCCNC(=N)N)C(=O)c1nccs1 [Compound 5e-1, Ac-RQLdR-kt] | 3120 nM |  | 
10 | CC(=O)N[C@@H](CO)C(=O)N[C@@H](CCC(N)=O)C(=O)N[C@@H](CC(C)C)C(=O)N[C@@H](CCCNC(=N)N)C(=O)c1nccs1 [Compound 5f, Ac-SQLR(SEQ ID NO: 7)-kt] | 180 nM | 182 | 
11 | CC(=O)N[C@@H](CO)C(=O)N[C@@H](CCCCN)C(=O)N[C@@H](CC(C)C)C(=O)N[C@H](CCCNC(=N)N)C(=O)c1nccs1 [Compound 6-1, Ac-SKLdR-kt] | 6310 nM |  | 
12 | CC(=O)N[C@@H](CO)C(=O)N[C@@H](Cc1c[nH]cn1)C(=O)N[C@@H](CC(C)C)C(=O)N[C@@H](CCCNC(=N)N)C(=O)c1nccs1 [Compound 6a, Ac-SHLR(SEQ ID NO: 11)-kt] | 1800 nM | 332 | IC50 (matriptase): 560 nM; IC50 (hepsin): 5 nM
13 | CC(=O)N[C@@H](CO)C(=O)N[C@@H](Cc1c[nH]cn1)C(=O)N[C@@H](CC(C)C)C(=O)N[C@H](CCCNC(=N)N)C(=O)c1nccs1 [Compound 6a-1, Ac-SHLdR-kt] | 21200 nM |  | 
14 | CC(=O)N[C@@H](Cc1c[nH]c2ccccc12)C(=O)N[C@@H](CCCCN)C(=O)N[C@@H](CC(C)C)C(=O)N[C@@H](CCCNC(=N)N)C(=O)c1nccs1 [Compound 6b, Ac-WKLR(SEQ ID NO: 12)-kt] | 320 nM | 56 | IC50 (matriptase): 97 nM; IC50 (hepsin): 4 nM
15 | CC(=O)N[C@@H](Cc1c[nH]c2ccccc12)C(=O)N[C@@H](CCCCN)C(=O)N[C@@H](CC(C)C)C(=O)N[C@H](CCCNC(=N)N)C(=O)c1nccs1 [Compound 6b-1, Ac-WKLdR-kt] | 6500 nM |  | 
16 | CC(=O)N[C@@H](CO)C(=O)N[C@@H](CCCCN)C(=O)N[C@@H](Cc1ccccc1)C(=O)N[C@H](CCCNC(=N)N)C(=O)c1nccs1 [Compound 6c-1, Ac-SKFdR-kt] | 10800 nM |  | 
17 | CC(=O)N[C@@H](CC(N)=O)C(=O)N[C@@H](CCCCN)C(=O)N[C@@H](CC(C)C)C(=O)N[C@@H](CCCNC(=N)N)C(=O)c1nccs1 [Compound 6d, Ac-NKLR(SEQ ID NO: 14)-kt] | 397 nM and 400 nM | 79 | Ki (hepsin): 1.41 nM
18 | CC(=O)N[C@@H](CO)C(=O)N[C@H](CCCNC(=N)N)C(=O)N[C@@H](CC(C)C)C(=O)N[C@H](CCCNC(=N)N)C(=O)c1nccs1 [Compound 6e-3, Ac-SdRLdR-kt] | 11900 nM |  | 
19 | CC(=O)N[C@H](C(=O)N[C@@H](CCCCN)C(=O)N[C@@H](CC(C)C)C(=O)N[C@@H](CCCNC(=N)N)C(=O)c1nccs1)[C@@H](C)O [Compound 6f, Ac-TKLR(SEQ ID NO: 16)-kt] | 567 nM | 103 | 
20 | CC(=O)N[C@@H](CCCNC(=N)N)C(=O)N[C@@H](CCCCN)C(=O)N[C@@H](CC(C)C)C(=O)N[C@@H](CCCNC(=N)N)C(=O)c1nccs1 [Compound 6h, Ac-RKLR(SEQ ID NO: 18)-kt] | 370 nM | 17 | 
21 | CC(C)C[C@H](NC(=O)[C@H](CCC(N)=O)NC(=O)[C@@H](N)CCCCN)C(=O)N[C@@H](CCCNC(=N)N)C(=O)c1nccs1 [H-KQLR(SEQ ID NO: 1)-Kt] | 440 nM |  | 
22 | CC(C)C[C@H](NC(=O)[C@H](CCC(N)=O)NC(=O)[C@@H](N)CCCCN)C(=O)N[C@H](CCCNC(=N)N)C(=O)c1nccs1 [H-KQLdR-kt] | 11300 nM |  | 
23 | CC(=O)N[C@@H](CC(C)C)C(=O)N[C@@H](CC(C)C)C(=O)N[C@H](C=O)CCCNC(=N)N [Leupeptin, reference compound] | 535 nM | 188 | fold selective for HGFA over matriptase (HGFA [2]): 3 fold; IC50 (matriptase): 1150 nM; fold more potent for hepsin versus HGFA (hepsin): 3 fold; IC50 (hepsin): 256 nM
